What is called IC50 is the concentration needed to halve the response being measured.

Our source for the IC50 values is patent US5360907A, “Pyrrolo[3,2-B]pyridinylalkyl benzamide derivatives” (G.D. Searle & Co., priority 1993, dated 1994).

The target of one experiment is T1, PAF receptor (Homo sapiens, UniProt P25105).
T1 construct: human platelet membrane preparation; tissue Lifesource, Inc. (Glenview, Ill.); host or cells: human packed platelets (membrane preparation)
T1 sequence (P25105 whole entry): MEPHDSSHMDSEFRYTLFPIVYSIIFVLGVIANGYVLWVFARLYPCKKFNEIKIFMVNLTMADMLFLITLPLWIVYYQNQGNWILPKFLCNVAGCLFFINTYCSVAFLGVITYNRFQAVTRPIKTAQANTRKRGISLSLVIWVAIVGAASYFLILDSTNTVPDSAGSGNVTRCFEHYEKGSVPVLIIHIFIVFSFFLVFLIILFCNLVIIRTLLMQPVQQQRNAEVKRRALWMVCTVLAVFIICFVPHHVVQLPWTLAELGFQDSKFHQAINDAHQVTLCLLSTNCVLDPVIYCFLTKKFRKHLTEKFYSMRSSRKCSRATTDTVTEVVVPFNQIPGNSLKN
The experiment can be described thus: Assay A: Human Platelet Receptor Binding (inhibition of specific [^3 H]PAF binding to human platelet membrane preparation). The conditions noted are these: 0.75 nM [^3 H]PAF, human platelet membranes, 30 minutes at 24° C. The procedure:
Compounds of the invention were evaluated for their ability to inhibit specific binding of [^3 H]PAF to human platelet membrane preparation. Human packed platelets were obtained from Lifesource, Inc. (Glenview, Ill.) and washed 3 times with 10 mM Trizma pH 7.0, 2 mM EDTA (dipotassium salt), 150 mM KCl and then once with 10 mM Trizma 7.4, 20 mM CaCl2. The platelets were broken by freezing in a dry ice-ethanol bath, followed by thawing in 24° C. water baths. The preparation was centrifuged (40,000×g, 20 minutes, 4'C) and the pellet suspended in 10 mM Trizma 7.4, 20 mM CaCl2, 5 mg/ml human albumin. Protein concentration in the platelet membrane preparation was determined by the Lowry method [O. H. Lowry et al., J. Biol. Chem., 193, 265-275 (1951)]. Aliquots of the membrane preparation were stored at -70° C. Each preparation was characterized for PAF receptor number and dissociation constant (Kd). In binding assays 5 μl of test compound, solubilized in DMSO, was added to polypropylene tubes along with 0.75 nM [^3 H]PAF and 200 mcl [0.075 nM] of membranes and 95 μl 10 mM Trizma 7.4, 20 mM CaCl2, 5 mg/ml human albumin. Tubes were incubated for 30 minutes at 24° C. The incubation was terminated by adding 4 ml of ice-cold 10 mM Trizma pH 7.4, 20 mM CaCl2 and 20 mg/ml BSA prior to vacuum filtration using Whatman GF/C filters. Filters were prepared and counted for a scintillation counter. All DPM values were corrected for background and isotope decay. Triplicate determinations for single doses were averaged. The amount of non-specific binding was subtracted from all dose averages, giving an amount of specific binding in all cases. The IC50 values for the compounds of the invention were determined by the Allfit program using percent displacement data. (Allfit is a `basic` computer program for simultaneous curve fitting of a family of signoidal dose-response curves using the four parameter logistic equation.) Results are shown in Table I.
Compound `COc1cc(C(=O)N(C(C)C)C2CCCCC2)ccc1Cn1ccc2ncccc21` [Example 1, N-cyclohexyl-3-methoxy-N-(1-methylethyl)-4-(1H-pyrrolo[3,2-b]pyridin-1-ylmethyl)benzamide] gave an IC50 of 38 nM.
With `COc1cc(Cn2ccc3ncccc32)ccc1C(=O)N(C(C)C)C1CCCCC1` [Example 3, N-cyclohexyl-2-methoxy-N-(1-methylethyl)-4-(1H-pyrrolo[3,2-b]pyridin-1-ylmethyl)benzamide], the IC50 came out at 2 nM.
`COc1cc(Cn2ccc3ncccc32)ccc1C(=O)N(C1CCCCC1)C1CCC1` [Example 4, N-cyclobutyl-N-cyclohexyl-2-methoxy-4-(1H-pyrrolo[3,2-b]pyridin-1-ylmethyl)benzamide] displayed an IC50 of 7 nM.
`COc1cc(Cn2ccc3ncccc32)ccc1C(=O)N(C1CCCC1)C1CC(C)CC(C)C1` (stereo not shown) [Example 5, N-cyclopentyl-N-(3,5-dimethylcyclohexyl)-2-methoxy-4-(1H-pyrrolo[3,2-b]pyridin-1-ylmethyl)benzamide] came in with an IC50 of 15 nM.
With `Cc1cc(C(=O)N(C2CCCCC2)C2CCCC2)ccc1Cn1ccc2ncccc21` [Example 6, N-cyclohexyl-N-cyclopentyl-3-methyl-4-(1H-pyrrolo[3,2-b]pyridin-1-ylmethyl)benzamide], the IC50 turned out to be 39 nM.
The compound `CC(C)N(C(=O)c1ccc(Cn2ccc3ncccc32)c(Br)c1)C1CCCCC1` [Example 7, 3-bromo-N-cyclohexyl-N-(1-methylethyl)-4-(1H-pyrrolo[3,2-b]pyridin-1-ylmethyl)benzamide] returned an IC50 of 8 nM.

Another experiment relates to human platelets. Description: Assay B: Human Platelet Aggregation Inhibition (PAF-induced aggregation in human platelet-rich plasma). The experiment is classed as cell-based. Particulars: 37°. The procedure:
Compounds of the invention were evaluated for their ability to inhibit PAF-induced aggregation of human platelets in a human-platelet-rich plasma. Venous blood was collected from donors who fasted for 8 hours and were instructed not to use antiinflammatory drugs for 2 weeks prior to the blood draw. Blood was collected into syringes containing 0.1 ml of 3.8% [w/v] citrate and centrifuged in polypropylene tubes at 150 xg for 20 minutes at room temperature. The platelet rich plasma [PRP] was collected and let sit for 20 minutes at room temperature. Platelet activating factor [PAF] was diluted in 0.9% NaCl with 0.25% bovine serum albumin. Silicon treated cuvettes with stir bars were placed in the 37° heating block of the platelet aggregometer [Bio/Data Corporation, Platelet Aggregation Profiler, Model PAP-4]. PRP and test compound were added to cuvettes and aggregation monitored for 10-15 seconds at 37° with stirring. PAF was added and aggregation monitored for an additional 3 minutes. Peak aggregation was considered the peak of the first aggregation wave, usually 45-60 seconds after PAF addition. Inhibition of aggregation was determined by the following: 1-[(% aggregation in the presence of compound).div.(% maximal aggregation)]. A log/logit transformation was used to determine half maximal inhibitory concentration of a test compound [IC50 ].
`COc1cc(C(=O)N(C(C)C)C2CCCCC2)ccc1Cn1ccc2ncccc21` [Example 1, N-cyclohexyl-3-methoxy-N-(1-methylethyl)-4-(1H-pyrrolo[3,2-b]pyridin-1-ylmethyl)benzamide] gave an IC50 of 2 nM.
